Reference: patent publication US20260317367A1, “SALTS INCLUDING CRYSTALLINE SALTS OF 25-HYDROXY-CHOLEST-5-EN-3-SULFATE AND METHODS FOR PREPARING SAME” (Durect Corporation, priority 2022, published 2026)
Where a name gives a salt, the structure may show the parent alone.

Experiments:
Type in all cases: physicochemical
[1] = Differential scanning calorimetry (DSC), thermal decomposition / endothermic transition; details: for Decomposition temperature (DSC): 10° C./min; for First significant endothermic transition (DSC): indicative of thermal degradation or solid-state transformation
Experimental: Differential scanning calorimetry (DSC) is a thermoanalytical technique where the difference in the amount of heat required to increase the temperature of a sample and reference is measured as a function of temperature. Using this technique, phase transitions of a sample can be measured such as melting point. Decomposition can also be observed by DSC as can dehydration events. In the context of DSC measurements, there is also variability and the term “about” means ±1° C., and such variability is to be understood whether a DSC measurement is prefaced by “about” or not unless specified otherwise. Exemplary methods for collecting DSC data are set forth in Example 21. Thermogravimetric analysis, sometimes referred to as, thermal gravimetric analysis (TGA) is a thermal method of thermal analysis where the mass of a sample is measured as a function of time as the sample temperature changes. For example, when samples disclosed herein are heated and a loss in mass is measured prior to decomposition, this is likely indicative of the loss of water from the sample and may indicate that the sample being heated is a hydrate. Exemplary methods for collecting TGA are set forth in Example 23.
DSC was performed using a Mettler-Toledo DSC3+ differential scanning calorimeter. A tau lag adjustment is performed with indium, tin, and zinc. The temperature and enthalpy are adjusted with octane, phenyl salicylate, indium, tin and zinc. The adjustment is then verified with octane, phenyl salicylate, indium, tin, and zinc. The sample was placed into a hermetically sealed aluminum DSC pan, and the weight was accurately recorded. The pan was then inserted into the DSC cell. A weighed aluminum pan configured as the sample pan was placed on the reference side of the cell. The pan lid was pierced prior to sample analysis. Samples were analyzed from 30° C. to 350° C. or 30° C. to 250° C., both at 10° C./min.

[2] = Solubility of the lysine salt in solvents for NMR analysis
Text: Use of TFA as solvent cleaves the sulfate group at the C3 position. ^1H-NMR analysis (CF3COOD) indicated a 1/1 ratio of lysine to cholesterol, as well as ~0.2 eq. triethylamine and some iPrOH.

[3] = X-ray powder diffraction before and after DVS (form stability); details: 5% to 95% RH
Experimental: XRPD patterns were collected with a PANalytical X'Pert PRO MPD or a PANalytical Empyrean diffractometer using an incident beam of Cu radiation produced using an Optix long, fine-focus source. An elliptically graded multilayer mirror was used to focus Cu Kα X-rays through the specimen and onto the detector. Prior to the analysis, a silicon specimen (NIST SRM 640f) was analyzed to verify the observed position of the Si 111 peak is consistent with the NIST-certified position. A specimen of the sample was sandwiched between 3-μm-thick films and analyzed in transmission geometry. A beam-stop, short antiscatter extension, and antiscatter knife edge were used to minimize the background generated by air. Soller slits for the incident and diffracted beams were used to minimize broadening and asymmetry from axial divergence. Diffraction patterns were collected using a scanning position-sensitive detector (X'Celerator) located 240 mm from the specimen and Data Collector software v. 5.5. All images have the instrument labeled as X'Pert PRO MPD regardless of the instrument used.
XRPD patterns were collected with a PANalytical X'Pert PRO MPD diffractometer using an incident beam of Cu Kα radiation produced using a long, fine-focus source and a nickel filter. The diffractometer was configured using the symmetric Bragg-Brentano geometry. Prior to the analysis, a silicon specimen (NIST SRM 640f) was analyzed to verify the observed position of the Si 111 peak is consistent with the NIST-certified position. A specimen of the sample was prepared as a thin, circular layer centered on a silicon zero-background substrate. Antiscatter slits (SS) were used to minimize the background generated by air. Soller slits for the incident and diffracted beams were used to minimize broadening from axial divergence. Diffraction patterns were collected using a scanning position-sensitive detector (X'Celerator) located 240 mm from the sample and Data Collector software v. 5.5
Dynamic vapor sorption data was collected on a Surface Measurement System DVS Intrinsic instrument. The samples were not dried prior to analysis. Sorption and desorption data were collected over a range from 5% to 95% RH in 10% RH increments under a nitrogen purge. The equilibrium criteria used for the analyses were 0.001 dm/dt weight change in 5 minutes with a minimum step time of 30 minutes and maximum equilibration time of 180 minutes with a 3 minute data logging interval. Data were not corrected for the initial moisture content of the sample.

[4] = listed as crystalline 25HC3S hydroxyethylpyrrolidinium
[5] = listed as crystalline 25HC3S calcium
[6] = listed as crystalline 25HC3S potassium
[7] = listed as crystalline 25HC3S tromethammonium

## C[C@H](CCCC(C)(C)O)[C@H]1CC[C@H]2[C@@H]3CC=C4C[C@@H](OS(=O)(=O)O)CC[C@]4(C)[C@H]3CC[C@]12C [Salt #14]
[1]
  Decomposition temperature (DSC): about 186 °C
  First significant endothermic transition (DSC): ~186 °C
[2]; any other common organic solvents or acidic or basic aqueous solutions
  Solubility in other solvents (in words): No solubility was detected
[2]; trifluoroacetic acid
  Solubility in trifluoroacetic acid (in words): only adequately soluble in trifluoroacetic acid

## CC(CCCC(C)(C)O)C1CCC2C3CC=C4CC(OS(=O)(=O)O)CCC4(C)C3CCC12C (stereo not drawn) [Salt #4]
[3]; listed as crystalline 25HC3S choline
  Change of x-ray powder diffraction pattern after DVS (in words): does not appreciably change
[1]; listed as choline
  First significant endothermic transition (DSC): ~198 °C

## CC(CCCC(C)(C)O)C1CCC2C3CC=C4CC(OS(=O)(=O)O)CCC4(C)C3CCC12C (stereo not drawn) [Salt #13]
[1]; listed as crystalline 25HC3S magnesium
  Decomposition temperature (DSC): about 139 °C

## CC(CCCC(C)(C)O)C1CCC2C3CC=C4CC(OS(=O)(=O)O)CCC4(C)C3CCC12C (stereo not drawn) [Salt #9]
[1]; listed as benzathine
  First significant endothermic transition (DSC): ~211 °C

## CC(CCCC(C)(C)O)C1CCC2C3CC=C4CC(OS(=O)(=O)O)CCC4(C)C3CCC12C (stereo not drawn) [Salt #10]
[1]; listed as diethanolamine
  First significant endothermic transition (DSC): ~181 °C

## CC(CCCC(C)(C)O)C1CCC2C3CC=C4CC(OS(=O)(=O)O)CCC4(C)C3CCC12C (stereo not drawn) [Salt #5]
[3]; listed as crystalline 25HC3S hydroxyethylammonium
  Change of x-ray powder diffraction pattern after DVS (in words): appearance of extra x-ray powder diffraction peaks

## CC(CCCC(C)(C)O)C1CCC2C3CC=C4CC(OS(=O)(=O)O)CCC4(C)C3CCC12C (stereo not drawn) [Salt #6]
[3]; [4]
  Change of x-ray powder diffraction pattern after DVS (in words): different than before
[1]; [4]
  Decomposition temperature (DSC): about 181 °C

## CC(CCCC(C)(C)O)C1CCC2C3CC=C4CC(OS(=O)(=O)O)CCC4(C)C3CCC12C (stereo not drawn) [Salt #2]
[3]; [5]
  Change of x-ray powder diffraction pattern after DVS (in words): not an appreciable change
[1]; [5]
  Decomposition temperature (DSC): about 130 °C

## CC(CCCC(C)(C)O)C1CCC2C3CC=C4CC(OS(=O)(=O)O)CCC4(C)C3CCC12C (stereo not drawn) [Salt #12]
[1]; listed as t-butylammonium
  First significant endothermic transition (DSC): ~201 °C

## CC(CCCC(C)(C)O)C1CCC2C3CC=C4CC(OS(=O)(=O)O)CCC4(C)C3CCC12C (stereo not drawn) [Salt #3]
[1]; listed as crystalline 25HC3S zinc
  Decomposition temperature (DSC): about 119 °C

## CC(CCCC(C)(C)O)C1CCC2C3CC=C4CC(OS(=O)(=O)O)CCC4(C)C3CCC12C (stereo not drawn) [Salt #1]
[3]; [6]
  Change of x-ray powder diffraction pattern after DVS (in words): not an appreciable change
[1]; [6]
  Decomposition temperature (DSC): 198 °C
[1]; listed as potassium
  First significant endothermic transition (DSC): ~198 °C

## CC(CCCC(C)(C)O)C1CCC2C3CC=C4CC(OS(=O)(=O)O)CCC4(C)C3CCC12C (stereo not drawn) [Salt #8]
[3]; [7]
  Change of x-ray powder diffraction pattern after DVS (in words): some potential differences
[1]; [7]
  Decomposition temperature (DSC): about 184 °C
